Laboratory results as given in patent US9289398B2, “Methods for the production of functional protein from DNA having a nonsense mutation and the treatment of disorders associated therewith” (PTC Therapeutics, Inc., priority 2006, dated 2016).

Assays:
Assay type in all cases: in vivo, human
[1] = Pulmonary function tests (FEV1, FVC), CF Phase 2 study
Description: Pulmonary function tests, including FEV1, FVC, and MEF25-75, are measured using standard spirometry procedures. Assessments of pulmonary function (including MEF25-75, FVC, and, particularly, FEV1) have been acknowledged as definitive clinical endpoints in patients with CF (Food and Drug Administration, 62nd Anti-Infective Drugs Advisory Committee. Discussion of NDA for tobramycin solution for inhalation (Tobi®) for the management of cystic fibrosis patients. November, 1997; Tiddens, 2002, Pediatr. Pulmonol. 34(3): 228-31). […] Pulmonary function testing is simple to administer (even in patients as young as 7 years of age), and uses standardized equipment and techniques that are widely available. Interpretation is performed using well-established normative equations that account for patient age, height, and gender.
(§1) Clinical endpoints were evaluated using the procedures set forth above. TEPD measurements were made prior to treatment and on days 14 and 28 of Cycle 1 and Cycle 2. Nasal mucosal curettage was collected from each nostril of each patient prior to treatment and on days 14 and 28 of Cycle 1 and Cycle 2. Pulmonary tests, including FEV1, FVC and MEF25-75, were measured prior to treatment, on day −1 of Cycle 2, on day 13 or 14 of Cycle 1 and day 13 or 14 of Cycle 2 in the study being conducted in Israel and the same parameters were measured prior to treatment and on day 13 or 14 of Cycle 2 in the study being conducted in the United States.
Statistically significant results and positive trends for secondary endpoints were also observed. In particular, although the trials were not been powered to detect statistical significant changes in secondary endpoints, statistically significant improvements from study entry to the end of the higher-dose treatment cycle in the patients' mean FEV1, FVC and weight were observed.

[2] = Safety, tolerability and compliance, DMD Phase 2 interim (6 patients)
Description: 3-[5-(2-Fluoro-phenyl)-[1,2,4]oxadiazol-3-yl]-benzoic acid is provided in a formulation described herein. Treatment is administered over 28 days for each treatment cohort. An initial cohort of patients are treated daily for 28 days with 3-[5-(2-fluoro-phenyl)-[1,2,4]oxadiazol-3-yl]-benzoic acid at a given dose level (e.g., 4-, 4-, and 8-mg/kg) TID. If the initial patients tolerate the drug, then a second cohort of patients receives 3-[5-(2-fluoro-phenyl)-[1,2,4]oxadiazol-3-yl]-benzoic acid at a higher dose level (e.g., 10-, 10-, and 20-mg/kg) TID. Thus, each patient receives a total of 84 doses of 3-[5-(2-fluoro-phenyl)-[1,2,4]oxadiazol-3-yl]-benzoic acid. After the end of 28 days of treatment, each patient is followed for an additional 28 days without treatment.
Six patients were administered 3-[5-(2-fluoro-phenyl)-[1,2,4]oxadiazol-3-yl]-benzoic acid TID in a regimen consisting of 4 mg/kg with breakfast, 4 mg/kg with lunch, and 8 mg/kg with supper, for a total daily dose of 16 mg/kg. All patients were ambulatory, but had characteristic signs and symptoms of DMD, including some degree of muscle dysfunction and elevated serum CK concentrations. […] These adverse events included diarrhea in 1 patient; abdominal pain in 1 patient; and flatulence in 2 patients. […] Treatment compliance was good, with patients taking >95% of the intended total drug treatment for 28 days at the lower dose level.

[3] = test system: CFTR; experiment: Transepithelial potential difference (TEPD) chloride conductance, Phase 2 study in nonsense-mutation-mediated cystic fibrosis
Description: The measurement of transepithelial potential difference (TEPD), also known as nasal potential difference, provides a sensitive evaluation of sodium and chloride transport directly in secretory epithelial cells via assessment of transepithelial bioelectric properties (Knowles et al., 1981, N. Engl. J. Med. 305(25):1489-95; Knowles et al., 1995, Hum. Gene Ther. 6:445). TEPD is performed in each nostril using standardized techniques (Standaert et al., 2004, Ped. Pulm. 37:385-92). In the procedure, a small plastic catheter is used to assess electrical differences across the outer cell membrane of nasal mucosa cells in the nostril. TEPD values are expressed in millivolts, or mV. A chloride conductance equal to or more electrically negative than −5.0 mV is generally considered to be in the normal range. […] TEPD assessments can also be made on rectal epithelial cells and lower respiratory epithelial cells. Because of the role of the CFTR protein in transporting chloride ions across cell membranes, and because of the absence of this protein, cystic fibrosis patients have an abnormal TEPD chloride conductance. As an endpoint, TEPD has the advantage that it can detect chloride transport changes that are a quantitative integration of the presence, functional activity, and apical location of the CFTR in airway cells. Furthermore, it is a direct measure of CFTR activity that is not likely to be affected by supportive or palliative treatments for CF (with the possible exception of systemically administered aminoglycoside antibiotics). Of importance is evidence that TEPD values can correlate with the degree of pulmonary dysfunction and radiographic abnormality (Ho et al., 1997, Eur. Respir. J. 10(9):2018-22; Fajac et al., 1998, Eur. Respir. J. 12(6):1295-300; Sermet-Gaudelus et al., 2005, Am. J. Respit. Crit. Care Med. 171(9):1026-1031). […] Under baseline conditions, TEPD-assessed chloride channel activity is very unlikely to normalize spontaneously in patients with CF; any observed improvements in TEPD-assessed chloride channel activity are expected to specifically denote pharmacological activity of CFTR-correcting therapies. Accordingly, it has become the primary endpoint in Phase 1-2 pharmacological and gene replacement studies aimed at correcting CFTR dysfunction (Peckham et al., 1995, AJ. Clin Sci (London). 89(3):277-84; Wilschanski et al., 2003, N. Engl. J. Med. 349(15):1433-41).
3-[5-(2-Fluoro-phenyl)-[1,2,4]oxadiazol-3-yl]-benzoic acid was provided in a formulation described herein.
as §1
This is the average of the changes from the beginning to the end of the treatment period in TEPD chloride conductance within each study participant. For example, if the changes in TEPD chloride conductance within each of three participants were −7.0 mV, −2.0 mV and −9.0 mV, the mean change in TEPD chloride conductance among these participants would be −6.0 mV.
For purposes of the trials, a chloride conductance response is defined as a TEPD chloride conductance improvement of at least −5 mV. For example, in a patient with a TEPD chloride conductance value of +1.0 my at baseline and a TEPD chloride conductance value of −6.0 mV at the end of treatment, the TEPD chloride conductance improvement would be −7.0 mV, representing a chloride conductance response. […]

[4] = study entry to end of higher dose treatment, percentage of normal
[5] = 6 DMD patients, 4, 4, 8 mg/kg TID
[6] = of 6 DMD patients, 4, 4, 8 mg/kg TID
[7] = Higher dose level 10, 10, 20 mg/kg TID oral 14 days, 15 CF patients
[8] = Lower dose level 4, 4, 8 mg/kg TID oral 14 days, 15 CF patients

O=C(O)c1cccc(-c2noc(-c3ccccc3F)n2)c1 [3-[5-(2-fluoro-phenyl)-[1,2,4]oxadiazol-3-yl]-benzoic acid]
Mean FEV1, End of Higher Dose Treatment ([1]; percentage of normal for gender, age and height, study entry 65.8%, one patient not included): 69.1% | Mean FVC, End of Higher Dose Treatment ([1]; percentage of normal for gender, age and height, study entry 80.2%, one patient not included): 85.1% | Mean FEV1, Change [1, 4]: 3.3% | Mean FVC, Change [1, 4]: 4.9% | Discontinuation of treatment due to an adverse event ([2]; 6 DMD patients): No patient discontinued treatment | Physical examinations, vital sign measurements, electrocardiograms [2, 5]: no safety concerns | Serum liver enzymes, bilirubin, creatinine, blood urea nitrogen [2, 5]: No clinically significant elevations | Serious drug-related adverse events ([2]; 6 DMD patients, 4, 4, 8 mg/kg TID, 28 days): No serious drug-related adverse events | Severity of potentially drug-related adverse events ([2]; 6 DMD patients, 4, 4, 8 mg/kg TID, preliminary): mild | Abdominal pain, number of patients [2, 6]: 1 | Diarrhea, number of patients [2, 6]: 1 | Flatulence, number of patients [2, 6]: 2 | TEPD chloride conductance in patients with different types of nonsense mutations within the CFTR gene ([3]; 15 CF patients): Improvements in TEPD chloride conductance | Mean change in TEPD chloride conductance: Best of nostrils [3, 7]: −6.4 mV | Mean change in TEPD chloride conductance: Mean of both nostrils [3, 7]: −4.4 mV | Mean change in TEPD chloride conductance: Best of nostrils [3, 8]: −9.0 mV | Mean change in TEPD chloride conductance: Mean of both nostrils [3, 8]: −6.7 mV | Treatment effects at the lower and the higher dose levels (TEPD chloride conductance) ([3]; lower 4, 4, 8 mg/kg versus higher 10, 10, 20 mg/kg): not statistically significant
